Reference: PubChem BioAssay AID248 (DTP/NCI, 2004)
Values joined by “and” are separate entries in the source; they are usually repeats but may differ in a detail not shown here. Equal values may be shown once. Toxic doses and inconclusive results are not listed.

System: L1210 leukemia ip in BDF1 mice, survival T/C
Assay: NCI In Vivo Anticancer Drug Screen. Data for tumor model L1210 Leukemia (intraperitoneal) in B6D2F1 (BDF1) mice
Conditions: endpoint: mean survival time, higher = longer survival
In short: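 Tumor cells were implanted, animals were treated, and survival was followed. The result divides the treated measurement by the vehicle-control measurement.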

[1] = dose: 100.0 mg/kg/injection, schedule: Q01DX001 (ip), vehicle: saline
[2] = dose: 100.0 mg/kg/injection, schedule: Q04DX003 (ip), vehicle: saline
[3] = dose: 200.0 mg/kg/injection, schedule: Q01DX001 (ip), vehicle: saline
[4] = dose: 200.0 mg/kg/injection, schedule: Q04DX003 (ip), vehicle: saline
[5] = dose: 400.0 mg/kg/injection, schedule: Q01DX001 (ip), vehicle: saline
[6] = dose: 400.0 mg/kg/injection, schedule: Q04DX003 (ip), vehicle: saline
[7] = dose: 5.0 mg/kg/injection, schedule: Q01DX009 (ip), vehicle: saline

## C/C(=C\c1ccc(O)cc1)[N+](=O)[O-]
dose: 50.0 mg/kg/injection, schedule: Q01DX009 (ip), vehicle: alcohol
  T/C: 104 % of control
dose: 100.0 mg/kg/injection, schedule: Q01DX009 (ip), vehicle: alcohol
  T/C: 105 % of control
dose: 100.0 mg/kg/injection, schedule: Q04DX003 (ip), vehicle: acetone
  T/C: 96 % of control
dose: 200.0 mg/kg/injection, schedule: Q01DX009 (ip), vehicle: alcohol
  T/C: 91 % of control
dose: 200.0 mg/kg/injection, schedule: Q04DX003 (ip), vehicle: acetone
  T/C: 105 % of control

## CCOC(=O)/C(=C\c1ccccc1)C(=O)c1ccccc1
[1]
  T/C: 97 % of control
[2]
  T/C: 97 % of control
[3]
  T/C: 93 % of control
[4]
  T/C: 92 % of control
[5]
  T/C: 88 % of control
[6]
  T/C: 101 % of control

## CN(C)C1C2(C)CCC(C2)C1(C)C (stereo not given)
dose: 5.0 mg/kg/injection, schedule: Q01DX001 (ip), vehicle: carboxymethylcellulose (CMC)
  T/C: 101 % of control
dose: 10.0 mg/kg/injection, schedule: Q01DX001 (ip), vehicle: carboxymethylcellulose (CMC)
  T/C: 98 % of control
dose: 20.0 mg/kg/injection, schedule: Q01DX001 (ip), vehicle: carboxymethylcellulose (CMC)
  T/C: 98 % of control
dose: 40.0 mg/kg/injection, schedule: Q01DX001 (ip), vehicle: carboxymethylcellulose (CMC)
  T/C: 95 % of control

## C/C=C/C(=O)Nc1cccc(OC(=O)NC(C)(C)C)c1
dose: 100.0 mg/kg/injection, schedule: Q01DX009 (ip), vehicle: saline with Tween-80
  T/C: 91 % of control
dose: 400.0 mg/kg/injection, schedule: Q01DX009 (ip), vehicle: saline with Tween-80
  T/C: 86 % of control

## CCCCCC(O)(CCCC)CCCC
dose: 100.0 mg/kg/injection, schedule: Q01DX001 (ip), vehicle: carboxymethylcellulose (CMC)
  T/C: 104 % of control
dose: 200.0 mg/kg/injection, schedule: Q01DX001 (ip), vehicle: carboxymethylcellulose (CMC)
  T/C: 107 % of control
dose: 400.0 mg/kg/injection, schedule: Q01DX001 (ip), vehicle: carboxymethylcellulose (CMC)
  T/C: 102 % of control

## Nc1c(OCCc2ccccc2)cccc1C(=O)O
dose: 100.0 mg/kg/injection, schedule: Q01DX001 (ip), vehicle: Klucel (hydroxypropylcellulose) (HPC)
  T/C: 97 % of control
dose: 200.0 mg/kg/injection, schedule: Q01DX001 (ip), vehicle: Klucel (hydroxypropylcellulose) (HPC)
  T/C: 96 % of control
dose: 400.0 mg/kg/injection, schedule: Q01DX001 (ip), vehicle: Klucel (hydroxypropylcellulose) (HPC)
  T/C: 93 % of control

## CCN(CC)C(=S)Oc1ccc(OC(=S)N(CC)CC)cc1
dose: 12.5 mg/kg/injection, schedule: Q04DX002 (ip), vehicle: saline with Tween-80
  T/C: 93 % of control
dose: 25.0 mg/kg/injection, schedule: Q04DX002 (ip), vehicle: saline with Tween-80
  T/C: 97 % of control
dose: 50.0 mg/kg/injection, schedule: Q04DX002 (ip), vehicle: saline with Tween-80
  T/C: 93 % of control
dose: 200.0 mg/kg/injection, schedule: Q04DX003 (ip), vehicle: saline with Tween-80
  T/C: 89 % of control
dose: 400.0 mg/kg/injection, schedule: Q04DX003 (ip), vehicle: saline with Tween-80
  T/C: 91 % of control

## CC([NH-])C[NH-].[Cl][Pt+2][Cl] (stereo not given)
dose: 0.31 mg/kg/injection, schedule: Q01DX009 (ip), vehicle: saline
  T/C: 108 % of control
dose: 0.62 mg/kg/injection, schedule: Q01DX009 (ip), vehicle: saline
  T/C: 116 % of control and 119 % of control
dose: 1.1 mg/kg/injection, schedule: Q01DX009 (ip), vehicle: saline
  T/C: 111 % of control
dose: 1.25 mg/kg/injection, schedule: Q01DX009 (ip), vehicle: saline
  T/C: 122 % of control
dose: 1.65 mg/kg/injection, schedule: Q01DX009 (ip), vehicle: saline
  T/C: 116 % of control
dose: 3.75 mg/kg/injection, schedule: Q01DX009 (ip), vehicle: saline
  T/C: 173 % of control
[7]
  T/C: 93 % of control and 108 % of control
dose: 6.25 mg/kg/injection, schedule: Q04DX002 (ip), vehicle: Klucel (hydroxypropylcellulose) (HPC)
  T/C: 112 % of control
dose: 12.5 mg/kg/injection, schedule: Q04DX002 (ip), vehicle: Klucel (hydroxypropylcellulose) (HPC)
  T/C: 112 % of control
dose: 25.0 mg/kg/injection, schedule: Q04DX002 (ip), vehicle: Klucel (hydroxypropylcellulose) (HPC)
  T/C: 104 % of control

## CN1C2CCCC1CC(=O)NC2 (stereo not given)
dose: 15.0 mg/kg/injection, schedule: Q01DX001 (ip), vehicle: saline
  T/C: 107 % of control
dose: 15.0 mg/kg/injection, schedule: Q04DX002 (ip), vehicle: saline
  T/C: 101 % of control
dose: 30.0 mg/kg/injection, schedule: Q01DX001 (ip), vehicle: saline
  T/C: 106 % of control
dose: 30.0 mg/kg/injection, schedule: Q04DX002 (ip), vehicle: saline
  T/C: 101 % of control
dose: 60.0 mg/kg/injection, schedule: Q04DX002 (ip), vehicle: saline
  T/C: 108 % of control

## CC1=CC(C)(C)NC(=S)N1c1cccc2ccccc12
dose: 75.0 mg/kg/injection, schedule: Q01DX009 (ip), vehicle: saline with Tween-80
  T/C: 90 % of control
dose: 150.0 mg/kg/injection, schedule: Q01DX009 (ip), vehicle: saline with Tween-80
  T/C: 87 % of control
dose: 224.0 mg/kg/injection, schedule: Q01DX Z (ip), vehicle: methylcellulose (MC)
  T/C: 94 % of control
dose: 300.0 mg/kg/injection, schedule: Q01DX009 (ip), vehicle: saline with Tween-80
  T/C: 88 % of control
dose: 334.0 mg/kg/injection, schedule: Q01DX Z (ip), vehicle: methylcellulose (MC)
  T/C: 86 % of control
dose: 500.0 mg/kg/injection, schedule: Q01DX Z (ip), vehicle: methylcellulose (MC)
  T/C: 88 % of control
dose: 750.0 mg/kg/injection, schedule: Q01DX Z (ip), vehicle: methylcellulose (MC)
  T/C: 102 % of control

## CCCCCOC(c1ccc2c(c1)OCO2)C(C)Br (stereo not given)
dose: 100.0 mg/kg/injection, schedule: Q04DX002 (ip), vehicle: saline
  T/C: 96 % of control
dose: 200.0 mg/kg/injection, schedule: Q04DX002 (ip), vehicle: saline
  T/C: 104 % of control
dose: 400.0 mg/kg/injection, schedule: Q04DX002 (ip), vehicle: saline
  T/C: 90 % of control

## O=C(C=C(C(F)(F)Cl)C(F)(F)Cl)c1cccs1
[7]
  T/C: 95 % of control
dose: 10.0 mg/kg/injection, schedule: Q01DX009 (ip), vehicle: saline
  T/C: 88 % of control

## CN=C(c1ccc(NC(=O)c2ccc(C(=O)Nc3ccc(C(=NC)N(C)C(C)=O)cc3)c(Cl)c2)cc1)N(C)C(C)=O
dose: 25.0 mg/kg/injection, schedule: Q01DX015 (ip), vehicle: methylcellulose (MC)
  T/C: 95 % of control
dose: 50.0 mg/kg/injection, schedule: Q01DX015 (ip), vehicle: methylcellulose (MC)
  T/C: 93 % of control
dose: 75.0 mg/kg/injection, schedule: Q01DX015 (ip), vehicle: methylcellulose (MC)
  T/C: 96 % of control
dose: 200.0 mg/kg/injection, schedule: Q01DX015 (ip), vehicle: methylcellulose (MC)
  T/C: 93 % of control

## O=C(Nc1ccccc1)Nc1ccc(Cl)cc1Cl
dose: 12.5 mg/kg/injection, schedule: Q04DX002 (ip), vehicle: other
  T/C: 107 % of control
dose: 25.0 mg/kg/injection, schedule: Q04DX002 (ip), vehicle: other
  T/C: 93 % of control
dose: 50.0 mg/kg/injection, schedule: Q04DX002 (ip), vehicle: other
  T/C: 90 % of control
dose: 100.0 mg/kg/injection, schedule: Q04DX002 (ip), vehicle: other
  T/C: 96 % of control

## C/C(=N/N(C)C)c1ccccc1O
dose: 100.0 mg/kg/injection, schedule: Q01DX009 (ip), vehicle: Klucel (hydroxypropylcellulose) (HPC)
  T/C: 103 % of control
dose: 200.0 mg/kg/injection, schedule: Q01DX009 (ip), vehicle: Klucel (hydroxypropylcellulose) (HPC)
  T/C: 106 % of control
dose: 400.0 mg/kg/injection, schedule: Q01DX009 (ip), vehicle: Klucel (hydroxypropylcellulose) (HPC)
  T/C: 92 % of control

## C(=N\N1CCN(/N=C/c2ccc3c(c2)OCO3)CC1)/c1ccc2c(c1)OCO2
[1]
  T/C: 104 % of control
[3]
  T/C: 102 % of control
[5]
  T/C: 96 % of control

## Cc1ccc(NCC(O)CN2CCCCC2)cc1 (stereo not given)
dose: 10.0 mg/kg/injection, schedule: Q01DX009 (ip), vehicle: other
  T/C: 104 % of control
dose: 20.0 mg/kg/injection, schedule: Q01DX009 (ip), vehicle: other
  T/C: 98 % of control
dose: 40.0 mg/kg/injection, schedule: Q01DX009 (ip), vehicle: other
  T/C: 92 % of control

## N#Cc1ncc(-c2ccc(Cl)cc2)nc1Cl
dose: 100.0 mg/kg/injection, schedule: Q01DX009 (ip), vehicle: saline
  T/C: 105 % of control
[2]
  T/C: 91 % of control
dose: 200.0 mg/kg/injection, schedule: Q01DX009 (ip), vehicle: saline
  T/C: 113 % of control
[4]
  T/C: 93 % of control
[6]
  T/C: 95 % of control

## CC1=CC(=O)C2CCC=C(C(=O)O)C2(C)C1=O (stereo not given)
dose: 100.0 mg/kg/injection, schedule: Q04DX003 (ip), vehicle: alcohol
  T/C: 97 % of control
dose: 200.0 mg/kg/injection, schedule: Q04DX003 (ip), vehicle: alcohol
  T/C: 102 % of control
dose: 400.0 mg/kg/injection, schedule: Q04DX003 (ip), vehicle: alcohol
  T/C: 97 % of control
